In paper PMC12737022, “Evaluations of Sex Differences in Dosimetry in Rats Following Perfluorohexanesulfonamide (PFHxSA) Oral Exposure” (Toxics, 2025):

Tests used:
Sprague Dawley rats [1] = experiment: Plasma thyroid hormone quantitation after 5-day oral PFHxSA exposure; type: in vivo, rat
Excerpt: (§1) The plasma and liver samples for this investigation were provided by Mutlu et al.. The study design, including detailed descriptions of animal handling, procedures for dosing, clinical observations, termination, and collection of tissues, is reported elsewhere and is consistent with the ARRIVE guidelines. Briefly, male and female Sprague Dawley (SD) rats (Crl:CD(SD)) (n = 48/sex, 96 total) were purchased from Charles River Laboratory (Raleigh, NC, USA) and allowed to acclimate for ≥5 days before initial dosing. Rats were 8–10 weeks old at the time of exposure. PFHxSA dosing solutions in corn oil were prepared on Day 0 and used over the course of the study. Rats of both sexes (n = 5/sex, dose, and time point, plus eight vehicle controls per sex) were dosed by oral gavage (5 mL/kg body weight) once daily for five days. […] The formulation concentrations decreased from 100 mg/kg/day at half-log10 intervals until the lowest dose level, which was a full log10 interval below the next higher dose, giving eight dose levels (0.01 to 100 mg/kg/day or 0.025 µmol/kg/day to 250 µmol/kg/day) in addition to vehicle controls. Doses were administered in randomized order within ± 1 h on each day of dosing. […] Rats were euthanized 24 h after the last dose. Blood was collected via cardiac puncture with tripotassium ethylene diamine tetraacetic acid (K3EDTA) as an anti-coagulant and centrifuged to collect cell-free plasma. Liver was collected and flash-frozen in liquid nitrogen. Liver, plasma, and dosing formulation samples were frozen at the USEPA Center for Computational Toxicology and Exposure (CCTE), Durham, NC, USA. Tissue samples (plasma and liver, n = 96 each) were stored at ≤−70 °C prior to extraction; dosing formulation samples (n = 9) were stored at −20 °C.
Thyroid hormones (TH) triiodothyronine (T3), reverse triiodothyronine (rT3), and thyroxine (T4) (SI Table S1) were extracted from plasma spiked with ^13C-labeled TH in batches of up to 96 samples, along with an MB, CCV, and LCS for QC. Gibco (Billings, MT, USA) Dulbecco’s Phosphate-Buffered Saline was used as the control matrix. See SI Text S3 for the extraction procedure.
Samples were analyzed as previously described in O’Shaughnessy et al.. Isotope dilution targeted LC/MS/MS was performed using a Sciex (Framingham, MA, USA) 6500+ QTRAP liquid chromatography/linear ion trap mass spectrometer system operated in positive electrospray ionization (ESI) mode with multiple reaction monitoring (MRM) scanning. A Restek (Bellefonte, PA, USA) Raptor Biphenyl column (100 mm × 2.1 mm, 2.6 µm) was used for chromatographic separation with a flow rate of 0.3 mL/min and a 50 °C column temperature. Gradient elution (see SI Table S2) was obtained with 0.1% formic acid in water (H2O) (mobile phase A) and 0.1% formic acid in methanol (MeOH) (mobile phase B). Detection limits for T3, rT3, and T4 were 0.04 ng/mL in plasma. […]
Acceptance criterion for the ICV was a recovery of ± 20% of the nominal concentration of the ICV as quantitated from the calibration curve. Method blank, CCV, and LCS were injected at the beginning of every extraction batch and reinjected after every 30 samples to confirm the validity of the calibration curve and sample quantitation. If fewer than 30 samples were injected, all samples were bracketed by injections of the CCV at the beginning and end of the analysis batch.
Acceptance criteria for the CCV and LCS were ± 30% of nominal concentration. Method blanks were acceptable with PFHxSA signal < 0.5x the LOQ. Samples were injected in order of increasing dose.
Quantitation of PFHxS in liver and plasma was performed using the same QC criteria and extraction methods as PFHxSA, only the internal standard was supplied in the form of a Wellington Laboratories isotopically labeled MPFAC-24ES PFAS mixture containing 13C3-PFHxS. Samples were quantitated against PFHxS matrix-matched calibration curves containing a minimum of 5 points spanning the range […]

[2] = tested on: cytochrome P450 (CYP450) hepatic metabolism enzyme isoforms 3A2, 4A1, and 2J4; parameters: method as in Mutlu et al. [55]; conditions: ref Mutlu et al. [55], cited from earlier work
rats = conditions: cited from earlier work
Sprague Dawley rats [3] = experiment: 5-day repeat dose in vivo study, survival; parameters: species or system rat; conditions: 0.01 to 100 mg/kg/day oral gavage once daily for five days; both sexes
Excerpt: as §1, with “Blood was collected via cardiac puncture with tripotassium ethylene diamine tetraacetic acid (K3EDTA) as an anti-coagulant and centrifuged to collect cell-free plasma. Liver was collected and flash-frozen in liquid nitrogen. Liver, plasma, and dosing formulation samples were frozen at the USEPA Center for Computational Toxicology and Exposure (CCTE), Durham, NC, USA. Tissue samples (plasma and liver, n = 96 each) were stored at ≤−70 °C prior to extraction; dosing formulation samples (n = 9) were stored at −20 °C.” left out

[4] = Ultracentrifugation plasma protein binding assay, human plasma; type: in vitro ADME
Method: Human and rat plasma were evaluated for plasma protein binding of PFHxSA and PFHxS using ultracentrifugation. Data generated in human plasma were obtained from an earlier study; for this study, data were generated in rat plasma following the same protocol as described by Smeltz et al.. SD rat plasma (pooled, mixed sex) was obtained from a commercial vendor (BioIVT, Westbury, NY, USA). Briefly, PFHxSA and PFHxS were added to the plasma to achieve a final assay concentration of 10 µM. Following a 1 h 37 °C incubation, 1 mL aliquots from each plasma solution were drawn in triplicate and transferred to polycarbonate ultracentrifuge tubes. These samples underwent ultracentrifugation (Beckman OptimaMax; Beckman Coulter Inc., Indianapolis, IN, USA) at 850,000× g for 4 h at 37 °C; after completion, the aqueous fraction (AF) was collected by transferring the supernatant to a new tube. Two sets of samples of the original PFAS-spiked whole plasma were also collected after a 1 h or a 5 h incubation at 37 °C. […]
Intrinsic hepatic clearance (Clint) and fraction unbound in plasma (fup) were calculated from the experimental point estimate data as described in Dobreniecki et al.. […] Renal clearance was calculated using the glomerular filtration rate (a species-dependent constant) and the fraction unbound in blood (fub), estimated by adjusting the experimental fup for blood/plasma partitioning. […]

[5] = parameters: method as in PMID 31078680; conditions: across both sexes; cited from earlier work
[6] = parameters: method as in PMID 37756184; conditions: bariatric surgery patients; cited from earlier work

Row | SMILES | rT3 in female rat plasma (Sprague Dawley rats [1]; all doses) | rT3 in male rat plasma (Sprague Dawley rats [1]; detected sporadically) | Dose with plasma T4 statistically different from controls (Sprague Dawley rats [1]; female rats) [mg/kg/day] | Dose with plasma T3 statistically different from controls (Sprague Dawley rats [1]; male and female rats) [mg/kg/day] | Dose from which plasma T4 was significantly decreased (Sprague Dawley rats [1]; male rats) [mg/kg/day] | Exposures at which changes in THs occur (Sprague Dawley rats [1]; rats) [mg/kg/day] | Increase in mRNAs of CYP450 isoforms 3A2, 4A1, and 2J4 ([2]; rat liver) [fold] | Lowest observed transcriptional effect level, CYP450 isoforms 3A2, 4A1, and 2J4 [2] [mg/kg/day] | Doses at which transcriptional pathway changes are observed in multiple tissues (rats) | Benchmark dose for relative liver weight changes (rats; rats, ref Auerbach et al. [40]) [mg/kg/day] | Exposures at which mortality was observed in a 5-day study (rats; ref Auerbach et al. [40]) | Survival (Sprague Dawley rats [3]) | Plasma binding of PFHxSA higher than PFHxS [4] [fold] | Liver partitioning summary values [5] | Human liver/plasma partitioning Kp [6]
1 | NS(=O)(=O)C(F)(F)C(F)(F)C(F)(F)C(F)(F)C(F)(F)C(F)(F)F [PFHxSA, Perfluorohexanesulfonamide] | not detected | no dose-responsive effect | 100 | 100 | 10 | ≥ 10 | ≥ 2 | 30 | less than 1 mg/kg/day | 16.25 | above 100 mg/kg/d | All rats survived to termination | 2.25 | – | –
2 | O=S(=O)(O)C(F)(F)C(F)(F)C(F)(F)C(F)(F)C(F)(F)C(F)(F)F [PFHxS, perfluorohexane sulfonic acid] | – | – | – | – | – | – | – | – | – | – | – | – | – | 0.16–0.44 | 0.12
